Measured values: patent publication EP0565593B1, “REDUCING PESTICIDAL INTERACTIONS IN CROPS” (priority 1990, dated 1992)
Where two headings read alike, the source gives them in different places.

Tests used:
Details in all cases: […]
[1] = test system: Velvetleaf (VELE); assay: whole plant or invertebrate; assay type: in vivo, Abutilon theophrasti
[2] = test system: Corn
[3] = test system: Velvetleaf (VELE); assay type: in vivo, Abutilon theophrasti
[4] = test system: Giant foxtail (GIFT); assay: whole plant or invertebrate; assay type: in vivo
[5] = test system: Shattercane (SHCA); assay type: in vivo
[6] = test system: Corn; remark: listed apart in the source
[7] = PPI, 13 days after PPI (Table 31)
[8] = observed 9 days later (Table 29)
[9] = observed 9 days later (Table 30)
[10] = PPI, 14 days after PPI (Table 34)
[11] = observed 8 days later (Table 32)
[12] = observed 8 days later (Table 33)
[13] = antidote number given but rate '-', 14 days after PPI (Table 34)
[14] = antidote number given but rate '-' (Table 33)

Row | Structure (SMILES) | % Inhibition VELE [1, 10] [%] | % Inhibition Corn [2, 10] [%] | % Inhibition VELE [3, 11] [%] | % Inhibition VELE [3, 12] [%] | % Inhibition GIFT [4, 10] [%] | % Inhibition SHCA [5, 11] [%] | % Inhibition SHCA [5, 12] [%] | % Inhibition Corn [6, 11] [%] | % Inhibition Corn [6, 12] [%] | also measured
1 | CCC1c2ccccc2CCN1C(=O)C(Cl)Cl (centres unmarked) [compound 39] |  |  |  |  |  |  |  |  |  | % Inhibition VELE [1, 7]: 95%; % Inhibition Corn [2, 7]: 50%; % Inhibition VELE [3, 8]: 90%; % Inhibition VELE [3, 9]: 80%; % Inhibition GIFT [4, 7]: 85%; % Inhibition SHCA [5, 8]: 75%; % Inhibition SHCA [5, 9]: 40%; % Inhibition Corn [6, 8]: 25%; % Inhibition Corn [6, 9]: 40%
2 | O=C(C(Cl)Cl)N1CCc2ccccc2C1c1ccccc1 (centres unmarked) [compound 40] |  |  |  |  |  |  |  |  |  | % Inhibition VELE [1, 7]: 85%; % Inhibition Corn [2, 7]: 60%; % Inhibition VELE [3, 8]: 90%; % Inhibition VELE [3, 9]: 70%; % Inhibition GIFT [4, 7]: 70%; % Inhibition SHCA [5, 8]: 85%; % Inhibition SHCA [5, 9]: 40%; % Inhibition Corn [6, 8]: 45%; % Inhibition Corn [6, 9]: 35%
3 | CC(C)CC1c2ccccc2CCN1C(=O)C(Cl)Cl (centres unmarked) [compound 41] |  |  |  |  |  |  |  |  |  | % Inhibition VELE [1, 7]: 80%; % Inhibition Corn [2, 7]: 60%; % Inhibition VELE [3, 8]: 90%; % Inhibition VELE [3, 9]: 70%; % Inhibition GIFT [4, 7]: 90%; % Inhibition SHCA [5, 8]: 80%; % Inhibition SHCA [5, 9]: 30%; % Inhibition Corn [6, 8]: 25%; % Inhibition Corn [6, 9]: 45%
4 | CNC(=O)COC(c1ccccc1)c1ccccc1 [compound 42] | 90 | 75 | 90 | 70 | 70 | 75 | 30 | 70 | 60 | 
5 | CCOC(=O)CNC(c1ccc(OC)cc1)c1ccc(OC)cc1 [compound 43] | 90 | 80 | 85 | 75 | 70 | 65 | 35 | 55 | 65 | 
6 | CCOC(=O)CNC(c1ccc(Cl)cc1)c1ccc(Cl)cc1 [compound 44] | 95 | 75 | 85 | 65 | 65 | 80 | 30 | 65 | 60 | 
7 | CC(C)(C)OC(=O)COC1c2ccccc2CCc2ccccc21 [compound 45] | 90 | 70 | 80 | 70 | 75 | 85 | 25 | 65 | 65 | 
8 | NC(=S)COC(c1ccccc1)c1ccccc1 [compound 46] | 85 | 65 | 90 | 70 | 60 | 70 | 25 | 50 | 55 | 
9 | CCCOC(=O)COC(c1ccccc1)c1ccccc1 [compound 47] | 85 | 60 | 85 | 75 | 65 | 75 | 30 | 25 | 50 | 
10 | O=C(COC(c1ccccc1)c1ccccc1)OCC(F)(F)F [compound 48] | 95 | 30 | 90 | 70 | 60 | 80 | 25 | 20 | 45 | 
11 | O=C(O)COC(c1ccccc1)c1cccc(C(F)(F)F)c1 (centres unmarked) [compound 49] | 100 | 55 | 90 | 80 | 65 | 70 | 30 | 45 | 70 | 
12 | O=C(COC(c1ccccc1)c1ccccc1)Oc1ccccc1 [compound 50] | 95 | 60 | 80 | 70 | 70 | 75 | 25 | 20 | 45 | 
13 | N#CCCOC(=O)COC(c1ccccc1)c1ccccc1 [compound 52] | 85 | 40 | 85 | 75 | 65 | 70 | 25 | 20 | 45 | 
14 | O=C(COC(c1ccccc1)c1cccc(C(F)(F)F)c1)OCC(F)(F)F (centres unmarked) [compound 53] | 100 | 60 | 85 | 70 | 70 | 80 | 25 | 50 | 50 | 
15 | C#CCOC(=O)COC(c1ccccc1)c1ccccc1 [compound 54] | 90 | 55 | 90 | 65 | 60 | 70 | 20 | 30 | 55 | 
16 | O=C(COC(c1ccccc1)c1ccccc1)OCc1ccoc1 [compound 55] | 90 | 45 | 85 | 70 | 65 | 75 | 25 | 25 | 50 | 
17 | Cc1cccc(C)c1C(OCC(=O)O)c1c(C)cccc1C [compound 56] | 85 | 65 | 85 | 75 | 75 | 75 | 30 | 60 | 60 | 
18 | O=C(COC(c1ccccc1)c1ccccc1)Oc1cccc([N+](=O)[O-])c1 [compound 57] | 80 | 65 | 85 |  | 70 | 80 | 35 | 15 | 65 | 
19 | CCOC(=O)COC(c1c(C)cccc1C)c1c(C)cccc1C [compound 58] | 90 | 30 | 85 | 70 | 60 | 70 | 30 | 55 | 45 | 
20 | CC(C)(C#N)OC(=O)COC(c1ccccc1)c1ccccc1 [compound 59] |  |  | 85 |  |  | 80 |  | 15 |  | % Inhibition VELE [1, 13]: 20%; % Inhibition Corn [2, 13]: 0%; % Inhibition VELE [3, 14]: 0%; % Inhibition GIFT [4, 13]: 30%; % Inhibition SHCA [5, 14]: 0%; % Inhibition Corn [6, 14]: 0%
